# Data taken from ChEMBL document CHEMBL5576135, “Discovery of Indolo[3,2-c]isoquinoline Derivatives as Novel Top1/2 Dual Inhibitors with Orally Efficacious Antitumor Activity and Low Toxicity” (J Med Chem, 2024).
# Calls of active or inactive are those of the source. The rule behind the calls is not given here.
# How the values were obtained:
# MCF7 = assay: Antiproliferative activity against human MCF7 cells assessed as inhibition of cell growth incubated for 96 hrs by MTT based ELISA; type: functional; conditions: MCF7, 96 h
# MDA-MB-231 = assay: Antiproliferative activity against human MDA-MB-231 cells assessed as inhibition of cell growth incubated for 96 hrs by MTT based ELISA; type: functional; conditions: MDA-MB-231, 96 h
# PC-3 = assay: Antiproliferative activity against human PC-3 cells assessed as inhibition of cell growth incubated for 96 hrs by MTT based ELISA; type: functional; conditions: PC-3, 96 h
# HCT-116 = assay: Antiproliferative activity against human HCT-116 cells assessed as inhibition of cell growth incubated for 96 hrs by MTT based ELISA; type: functional; conditions: HCT-116, 96 h
# NCI-H2228 = assay: Antiproliferative activity against human NCI-H2228 cells assessed as inhibition of cell growth incubated for 96 hrs by MTT based ELISA; type: functional; conditions: NCI-H2228, 96 h
# Huh-7 = assay: Antiproliferative activity against human Huh-7 cells assessed as inhibition of cell growth incubated for 96 hrs by MTT based ELISA; type: functional; conditions: Huh-7, 96 h
# [1] = target: T1, DNA topoisomerase 1 (Homo sapiens) (UniProt P11387); assay: Inhibition of Topoisomerase I (unknown origin) using pBR322 DNA as substrate at 200 uM incubated for 15 mins by EtBr staining based agarose gel electrophoresis method relative to control
# T1 sequence (whole entry): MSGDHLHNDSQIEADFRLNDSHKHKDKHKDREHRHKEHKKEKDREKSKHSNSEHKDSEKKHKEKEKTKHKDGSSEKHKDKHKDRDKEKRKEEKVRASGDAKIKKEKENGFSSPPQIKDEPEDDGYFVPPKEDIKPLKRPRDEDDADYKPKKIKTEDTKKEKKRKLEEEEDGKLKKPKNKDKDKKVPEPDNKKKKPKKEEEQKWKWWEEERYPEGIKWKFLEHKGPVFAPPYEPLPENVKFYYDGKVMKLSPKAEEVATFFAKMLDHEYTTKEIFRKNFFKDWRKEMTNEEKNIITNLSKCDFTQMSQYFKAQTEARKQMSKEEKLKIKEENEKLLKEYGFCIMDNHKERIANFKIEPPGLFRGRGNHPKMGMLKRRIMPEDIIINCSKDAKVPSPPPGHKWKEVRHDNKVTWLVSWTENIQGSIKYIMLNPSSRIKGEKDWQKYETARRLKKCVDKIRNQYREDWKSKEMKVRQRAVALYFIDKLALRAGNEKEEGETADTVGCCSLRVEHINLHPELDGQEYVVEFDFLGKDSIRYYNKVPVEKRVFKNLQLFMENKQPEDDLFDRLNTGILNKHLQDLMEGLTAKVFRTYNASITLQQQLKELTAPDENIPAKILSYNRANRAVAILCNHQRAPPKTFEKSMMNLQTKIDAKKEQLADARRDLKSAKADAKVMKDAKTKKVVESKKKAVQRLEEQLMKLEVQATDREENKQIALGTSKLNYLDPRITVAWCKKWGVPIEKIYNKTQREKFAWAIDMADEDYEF
# [2] = target: DNA topoisomerase 2-alpha (Homo sapiens) (UniProt P11388); assay: Inhibition of Topoisomerase 2 (unknown origin) using pBR322 DNA as substrate at 100 uM incubated for 15 mins by EtBr staining based agarose gel electrophoresis method relative to control
# [3] = target: T1, DNA topoisomerase 1 (Homo sapiens); assay: Inhibition of Topoisomerase I (unknown origin) using pBR322 DNA as substrate at 50 uM incubated for 15 mins by EtBr staining based agarose gel electrophoresis method
# [4] = target: DNA topoisomerase 2-alpha (Homo sapiens) (UniProt P11388); assay: Inhibition of Topoisomerase 2 (unknown origin) using pBR322 DNA as substrate at 50 uM incubated for 15 mins by EtBr staining based agarose gel electrophoresis method
# DNA topoisomerase 2-alpha (Homo sapiens), sequence (P11388 whole entry): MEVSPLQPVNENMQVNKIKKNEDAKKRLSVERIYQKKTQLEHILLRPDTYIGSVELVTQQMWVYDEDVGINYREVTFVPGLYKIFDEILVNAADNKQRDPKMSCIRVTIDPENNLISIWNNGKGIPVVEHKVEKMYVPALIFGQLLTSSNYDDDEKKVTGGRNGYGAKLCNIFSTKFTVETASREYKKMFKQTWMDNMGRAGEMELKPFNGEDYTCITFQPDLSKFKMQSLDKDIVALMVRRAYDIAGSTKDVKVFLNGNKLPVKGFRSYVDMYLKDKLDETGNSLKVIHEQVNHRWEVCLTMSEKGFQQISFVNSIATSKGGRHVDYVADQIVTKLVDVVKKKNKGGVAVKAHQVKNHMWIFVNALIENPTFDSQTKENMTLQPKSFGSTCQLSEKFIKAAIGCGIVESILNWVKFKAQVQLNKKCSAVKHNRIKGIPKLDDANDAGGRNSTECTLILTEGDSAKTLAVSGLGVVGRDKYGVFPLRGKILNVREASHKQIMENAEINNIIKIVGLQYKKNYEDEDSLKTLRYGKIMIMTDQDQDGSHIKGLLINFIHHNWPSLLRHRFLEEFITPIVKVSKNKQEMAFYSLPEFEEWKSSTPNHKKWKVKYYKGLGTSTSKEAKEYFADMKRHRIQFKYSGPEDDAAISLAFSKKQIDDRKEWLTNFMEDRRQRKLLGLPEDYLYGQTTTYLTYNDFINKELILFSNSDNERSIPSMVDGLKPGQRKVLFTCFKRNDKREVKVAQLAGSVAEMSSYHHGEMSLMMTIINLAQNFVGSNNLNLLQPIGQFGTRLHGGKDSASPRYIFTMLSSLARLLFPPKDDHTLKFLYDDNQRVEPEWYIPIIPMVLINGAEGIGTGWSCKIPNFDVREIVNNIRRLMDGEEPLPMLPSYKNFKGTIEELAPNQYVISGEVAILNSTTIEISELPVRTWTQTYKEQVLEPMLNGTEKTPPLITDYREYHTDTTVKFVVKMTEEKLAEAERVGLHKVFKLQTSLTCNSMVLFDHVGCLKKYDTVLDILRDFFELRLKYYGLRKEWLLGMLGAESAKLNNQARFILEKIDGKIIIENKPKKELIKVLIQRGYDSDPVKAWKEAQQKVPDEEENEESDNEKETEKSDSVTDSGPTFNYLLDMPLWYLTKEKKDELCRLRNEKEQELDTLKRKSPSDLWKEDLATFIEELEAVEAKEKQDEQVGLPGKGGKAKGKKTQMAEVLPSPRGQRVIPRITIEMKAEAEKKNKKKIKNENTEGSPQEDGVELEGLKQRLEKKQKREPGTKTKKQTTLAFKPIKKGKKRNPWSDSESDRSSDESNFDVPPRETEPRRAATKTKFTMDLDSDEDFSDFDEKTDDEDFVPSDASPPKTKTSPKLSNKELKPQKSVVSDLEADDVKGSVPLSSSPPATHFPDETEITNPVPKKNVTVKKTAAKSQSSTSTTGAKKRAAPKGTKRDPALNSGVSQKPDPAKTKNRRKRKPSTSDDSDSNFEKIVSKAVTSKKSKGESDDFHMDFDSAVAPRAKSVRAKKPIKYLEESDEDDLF
Compound,IC50 (MCF7),IC50 (MDA-MB-231),IC50 (PC-3),IC50 (HCT-116),IC50 (NCI-H2228),IC50 (Huh-7),inhibition [1],inhibition [2],inhibition [3],inhibition [4]
O=C(CCCn1c2ccc(OC(F)F)cc2c2nc(Cl)c3ccccc3c21)NO,4.35 µM,3.69 µM,4.11 µM,2.5 µM,5.31 µM,4.13 µM,,,,
COc1ccc2c(c1)c1nc(Cl)c3ccccc3c1n2CCCN1CCN(C)CC1,1.36 µM,2.24 µM,0.82 µM,1.65 µM,2.41 µM,3.31 µM,,,,
COc1ccc2c(c1)c1ncc3ccccc3c1n2CCCN1CCN(C)CC1,1.12 µM,1.68 µM,0.74 µM,1.17 µM,1.84 µM,2.24 µM,inactive,inactive,inactive,inactive
COc1ccc2c(c1)c1nc(Cl)c3ccccc3c1n2CCCN1CCN(C(C)C)CC1,1.76 µM,2.52 µM,1.12 µM,1.79 µM,2.36 µM,2.26 µM,,,,
O=C(CCCn1c2cc3c(cc2c2[nH]c(=O)c4ccccc4c21)OCO3)NO,6.57 µM,4.88 µM,7.14 µM,4.08 µM,> 10 µM,> 10 µM,> 95%,> 95%,Active,Active
COc1ccc2c(c1)c1nc(Cl)c3ccccc3c1n2CCCn1cnc(C)c1,> 10 µM,> 10 µM,> 10 µM,> 10 µM,> 10 µM,> 10 µM,,,,
COc1ccc2c(c1)c1nc(Cl)c3ccccc3c1n2CCCN1CCC[C@@H](O)C1,> 10 µM,> 10 µM,> 10 µM,> 10 µM,> 10 µM,> 10 µM,,,,
COc1ccc2c(c1)c1nc(Cl)c3ccccc3c1n2CCCN1CC[C@@H](O)C1,> 10 µM,> 10 µM,> 10 µM,> 10 µM,> 10 µM,> 10 µM,,,,
CN(C)CCCn1c2ccccc2c2nc(Cl)c3ccccc3c21,2.75 µM,1.95 µM,2.67 µM,1.33 µM,1.51 µM,2.99 µM,,,,

# Other lines, results leading:
IC50 (MCF7),IC50 (MDA-MB-231),IC50 (PC-3),IC50 (HCT-116),IC50 (NCI-H2228),IC50 (Huh-7),inhibition [1],inhibition [2],inhibition [3],inhibition [4],Compound
0.97 µM,0.8 µM,1.55 µM,1.38 µM,3.06 µM,3.41 µM,,,,,CCOc1ccc2c(c1)c1ncc3ccccc3c1n2CCCC(=O)NO
1.83 µM,1.36 µM,1.65 µM,0.96 µM,1.5 µM,2.49 µM,,,,,COc1ccc2c3nc(Cl)c4ccccc4c3n(CCCN(C)C)c2c1
> 10 µM,> 10 µM,> 10 µM,> 10 µM,> 10 µM,> 10 µM,,,,,COc1ccc2c(c1)c1nc(Cl)c3ccccc3c1n2CCCN1C(=O)CC(C)(C)CC1=O
> 10 µM,> 10 µM,> 10 µM,> 10 µM,> 10 µM,> 10 µM,,,,,COc1ccc2c(c1)c1nc(Cl)c3ccccc3c1n2CCCNc1ccn([C@H]2C[C@H](O)[C@@H](CO)O2)c(=O)n1
6.84 µM,5.9 µM,4.38 µM,4.05 µM,7.03 µM,> 10 µM,,,,,CN(C)CCCn1c2ccccc2c2[nH]c(=O)c3ccccc3c21
5.71 µM,2.38 µM,4.3 µM,4.07 µM,3.74 µM,3.37 µM,,,,,O=C(CCCn1c2ccc(OC(F)F)cc2c2ncc3ccccc3c21)NO
> 10 µM,> 10 µM,> 10 µM,> 10 µM,> 10 µM,> 10 µM,,,,,COc1ccc2c(c1)c1nc(Cl)c3ccccc3c1n2CCCn1cc(C)nc1C
4.6 µM,3.06 µM,3.7 µM,2.7 µM,4.55 µM,> 10 µM,,,,,COc1ccc2c3nc(Cl)c4ccccc4c3n(CCCC(=O)NO)c2c1
